CN1C(C(=O)Nc2ccccn2)=C(O)c2sccc2S1(=O)=O
Conditions | solubility (mole fraction)
in PEG-400, 298.15 K | 0.00976
in PEG-400, 303.15 K | 0.0131
in PEG-400, 308.15 K | 0.0175
in PEG-400, 313.15 K | 0.0227
in PEG-400, 323.15 K | 0.0345

solubility (mole fraction)
Conditions | in ethanol | in ethyl acetate | in ethylene glycol | in isopropanol | in n-butanol | in propylene glycol | in sec-butanol | in transcutol | in water
298.15 K | 3.71e-05 | 0.000679 | 0.000213 | 6.27e-05 | 8.13e-05 | 0.000194 | 6.15e-05 | 0.00183 | 4.11e-06
303.15 K | 4.11e-05 | 0.000746 | 0.000246 | 8.91e-05 | 0.000105 | 0.000235 | 8.79e-05 | 0.00202 | 5.07e-06
308.15 K | 4.56e-05 | 0.000825 | 0.000283 | 0.000125 | 0.000134 | 0.000275 | 0.000123 | 0.00222 | 6.46e-06
313.15 K | 4.98e-05 | 0.000908 | 0.000324 | 0.000164 | 0.000163 | 0.000327 | 0.000163 | 0.00241 | 8.33e-06
323.15 K | 5.84e-05 | 0.00106 | 0.000441 | 0.000267 | 0.000239 | 0.000437 | 0.000272 | 0.00286 | 1.38e-05

— BigSolDB 2.1
